Results taken from patent publication US20040122209A1, “Products for regulating the degradation of collagen and methods for identifying same” (Shriners Hospital For Children, priority 2002, published 2004).

How the values were obtained:
[1] = test system: bovine articular cartilage explant; assay: Collagenase-cleaved type II collagen (COL2-3/4C) in bovine articular cartilage explant culture; assay type: cell-based; settings: 1 and 10 μM, time- and dose-dependent
Method: The cartilages were prepared as previously described (Dahlberg, L. et al. (2000) supra. In brief, the cartilage samples were washed three times with basal culture medium containing Dulbecco's modified Eagle's medium (DMEM; Gibco BRL, Life Technologies, Grand Island, N.Y.) with 20 mM HEAPS buffer (pH 7.4) (Gibco BRL), 45 mM NaHCO3, 100 units/ml penicillin, 100 μg/ml streptomycin and 150 μg/ml gentamycin sulphate (Medium A). Full-depth cartilage slices from a single area, around 20 mm×20 mm were cut vertical to the articular surface and then into cubes of approximately 2 mm×2 mm (5-7 cubes were randomly obtained and wet weights about 50-70 mg/well determined).
The cartilage was assigned to 48 well plate (ca 40 mg/well) and kept in Medium A supplemented with 50 μg/ml ascorbic acid, 0.1 mg/bovine serum albumin, 50 μg/ml insulin, 5.0 μg/ml and 5.0 μg/ml sodium DMEM alone at 37° C. in 95% air/5% CO2. The cartilage was precultured for 2 days and medium was changed at day 0. Thereafter medium (as described in pellet cultures) was replaced every four days. Various CNBr fragments and/or synthetic peptides were freshly added from day 0 at each medium change. Thereafter, cartilage explants and conditioned media were harvested and stored at −20° C.
The cell pellets and cartilage explant cultured for various times were digested for the extraction of collagenase-generated neoepitope COL2-3/4Cshort (Billinghurst, R. C. et al., (1997) supra) and denatured type II collagen epitope COL2-3/4m and total type II collagen (Hollander, A. P. et al. (1994a) supra), as previously described: Briefly, the harvested pellets were incubated overnight with 1.0 mg/ml α-chymotrypsin at 37° C. to cleave and solubilize denatured collagen leaving the above neoepitope and epitope intact. After inhibition of α-chymotrypsin activity with N-tosyl-L-phenelalanine-chloromethyl ketone (Sigma), the samples were centrifuged and the supernatants were removed and boiled for 10 min. The COL2-3/4Cshort epitope (hereafter referred to as COL2-3/4Cshort) generated by cleavage of type II collagen by collagenase (Billinghurst, R. C. et al. (1997) supra) and intrachain epitope (COL2-3/4m) exposed in denatured type II collagen (Hollander, A. P. et al. (1994a) supra) were measured in α-chymotrypsin extracts by immunoassay. The COL2-3/4Cshort epitope is detected in an ELISA assay using a rabbit antibody to the carboxyterminal cleavage neoepitope on the TCA piece generated by primary collagenase cleavage of type II collagen. The release of the COL2-3/4C epitope into media was also measured by immunoassay. Total contents in tissue/cells and media was recorded for COL2-3/^4Cshort epitope. The COL2-3/4m epitope was recorded in cells and tissue where it was concentrated. The remaining residues of pellets and explants were digested overnight with 1.0 mg/ml proteinase K at 56° C. to extract the remaining intact type II collagen and then boiled for 10 min to denature the enzyme. Total type II collagen content in the pellets and explant was determined from the collective amount of COL2-3/4m in both the α-chymotrypsin and proteinase K digests.

MMP-13 = assay: ELISA for MMP-13 in conditioned medium of human chondrocytes; assay type: cell-based; settings: 48 hours; CB12-II 50 μM, TNF-α 50 ng/ml
Method: First-passaged normal human chondrocytes isolated by the method described above and cultured at high density (2×10^5 cells/cm^2) were trypsinized and resuspended in Medium A containing 1% FCS at a density of 10^6 cells/ml. Then, 200 μl of the cell suspension was each plated onto round-bottomed 96-well culture plate. On the next day after plating, CB12-II at 50 μM, USP at 50 μM, and TNF-α at 50 ng/ml were added to the culture media, and the culture was maintained for 24-48 hours. Conditioned media were collected and subjected to ELISA assay. The ELISA kits (BIOTRAK) for MMP-1 and MMP-13 were purchased from Amersham Pharmacia Biotech (Piscataway, N.J.). Measurement range was 6.25-100 ng/ml for MMP-1 and 0.094-3 ng/ml for MMP-13. Sensitivity for the assay was 1.7 ng/ml for MMP-1 and 0.7 ng/ml for MMP-13.
Protein levels of MMP-1 and MMP-13 were also tested by incubating isolated human chondrocytes for 48 hours in high density culture (10^6 cells/ml) with CB12-II, negative control peptide USP, or cytokine TNF-α, as discussed above. MMP-1 and MMP-13 secretion into medium from the cells was measured using ELISA (see FIGS. 9A and 9B).

ERGPPGPQGARGFPGTPGLPGVK [CB12-II]
induction of total collagenase cleavage of type II collagen by CB12 subpeptides [1]: most pronounced
MMP-13 secretion into medium versus no peptide and negative control peptide (USP) (MMP-13): significantly higher
